# Experimental data: article PMC11876601 (Molecular Systems Biology, 2025)
# Where two headings read alike, the source gives them in different places.
# Columns and labels:
# Test in all cases: cells
# [1] = tested on: Dan-G; set-up: Viability of PDAC cell lines, ATPlite luminescence, 11-dose single-agent curve fit; settings: 72 h, read-out: EC50 [nM]
# Outline: (§1)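 cells (1000 to 5000 per well) seeded 24 h before drug addition in a screen at 0.2% final DMSO. Controls were drug-free wells (negative) and 5 µM staurosporine (positive).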
# [2] = tested on: Colo-357; set-up: Viability of PDAC cell lines, ATPlite luminescence, 11-dose single-agent curve fit; settings: Homo sapiens, COLO357, 72 h, read-out: EC50 [nM]
# Outline: as §1
# [3] = tested on: PANC-1; set-up: Viability of PDAC cell lines, ATPlite luminescence, 11-dose single-agent curve fit; settings: Homo sapiens, PANC-1, 72 h, read-out: EC50 [nM]
# Outline: as §1
# [4] = tested on: FAMPAC; set-up: Viability of PDAC cell lines, ATPlite luminescence, 11-dose single-agent curve fit; settings: 72 h, read-out: EC50 [nM]
# Outline: as §1
# [5] = tested on: PaTu-8988-T; set-up: Viability of PDAC cell lines, ATPlite luminescence, 11-dose single-agent curve fit; settings: Homo sapiens, PaTu 8988t, 72 h, read-out: EC50 [nM]
# Outline: as §1
# [6] = tested on: BxPC-3; set-up: Viability of PDAC cell lines, ATPlite luminescence, 11-dose single-agent curve fit; settings: Homo sapiens, BXPC-3, 72 h, read-out: EC50 [nM]
# Outline: as §1
# [7] = tested on: AsPC-1; set-up: Viability of PDAC cell lines, ATPlite luminescence, 11-dose single-agent curve fit; settings: Homo sapiens, ASPC1, 72 h, read-out: EC50 [nM]
# Outline: as §1
# [8] = tested on: MiaPaCa-2; set-up: Viability of PDAC cell lines, ATPlite luminescence, 11-dose single-agent curve fit; settings: Homo sapiens, MIA PaCa-2, 72 h, read-out: EC50 [nM]
# Outline: as §1
# [9] = tested on: Suit2-07; set-up: Viability of PDAC cell lines, ATPlite luminescence, 11-dose single-agent curve fit; settings: 72 h, read-out: EC50 [nM]
# Outline: as §1
# [10] = tested on: HPDE; set-up: Viability of PDAC cell lines, ATPlite luminescence, 11-dose single-agent curve fit; settings: HPDE, 72 h, read-out: EC50 [nM]
# Outline: as §1
# [11] = tested on: Capan-1; set-up: Viability of PDAC cell lines, ATPlite luminescence, 11-dose single-agent curve fit; settings: Homo sapiens, CAPAN-1, 72 h, read-out: EC50 [nM]
# Outline: as §1
# [12] = tested on: HuP-T4; set-up: Viability of PDAC cell lines, ATPlite luminescence, 11-dose single-agent curve fit; settings: Homo sapiens, HuP-T4, 72 h, read-out: EC50 [nM]
# Outline: as §1
# [13] = tested on: PSN-1; set-up: ATPlite luminescence viability of PDAC cell lines, 11-dose single-agent curves, 4-parameter fit; settings: Homo sapiens, PSN1, 72 h, read-out: EC50 [nM]
# Experimental: (§2) Afterward, small amounts were transferred to 384-well intermediate plates (Greiner Bio-One GmbH, Germany). […] For drug combination screening, 1000 to 5000 cells were seeded into 384-well plates (CulturPlate™, Perkin Elmer, MA, USA) using a Multidrop™ Combi Reagent Dispenser (Thermo Scientific, MA, USA) in 50 µl medium per well 24 h prior to drug treatment (seeding densities see Appendix Table S1). […] The final DMSO concentration in each well was 0.2%. […] Eight wells per plate without library drug served as negative controls, and sixteen wells per plate containing 5 µM Staurosporine served as positive controls. […] Next, we analyzed the drug sensitivity of immortalized duct cell line HPDE to detect effects unrelated to pancreatic cancer.
# [14] = tested on: FAMPAC; set-up: ATPlite luminescence viability of PDAC cell lines, 11-dose single-agent curves, 4-parameter fit; settings: 72 h, read-out: EC50 [nM]
# Experimental: as §2
# [15] = tested on: BxPC-3; set-up: ATPlite luminescence viability of PDAC cell lines, 11-dose single-agent curves, 4-parameter fit; settings: Homo sapiens, BXPC-3, 72 h, read-out: EC50 [nM]
# Experimental: as §2
# [16] = tested on: Suit2-07; set-up: ATPlite luminescence viability of PDAC cell lines, 11-dose single-agent curves, 4-parameter fit; settings: 72 h, read-out: EC50 [nM]
# Experimental: as §2
# [17] = tested on: PSN-1; set-up: Viability of PDAC cell lines, ATPlite luminescence, 11-dose single-agent curve fit; settings: Homo sapiens, PSN1, 72 h, read-out: EC50 [nM]
# Outline: as §1
# [18] = tested on: Dan-G; set-up: ATPlite luminescence viability of PDAC cell lines, 11-dose single-agent curves, 4-parameter fit; settings: 72 h, read-out: EC50 [nM]
# Experimental: as §2
# [19] = tested on: PaTu-8988-T; set-up: ATPlite luminescence viability of PDAC cell lines, 11-dose single-agent curves, 4-parameter fit; settings: Homo sapiens, PaTu 8988t, 72 h, read-out: EC50 [nM]
# Experimental: as §2
# [20] = tested on: MiaPaCa-2; set-up: ATPlite luminescence viability of PDAC cell lines, 11-dose single-agent curves, 4-parameter fit; settings: Homo sapiens, MIA PaCa-2, 72 h, read-out: EC50 [nM]
# Experimental: as §2
SMILES,EC50 [1] [nM],EC50 [2] [nM],EC50 [3] [nM],EC50 [4] [nM],EC50 [5] [nM],EC50 [6] [nM],EC50 [7] [nM],EC50 [8] [nM],EC50 [9] [nM],EC50 [10] [nM],EC50 [11] [nM],EC50 [12] [nM],EC50 [13] [nM],EC50 [14] [nM],EC50 [15] [nM],EC50 [16] [nM],EC50 [17] [nM],EC50 [18] [nM],EC50 [19] [nM],EC50 [20] [nM]
Cn1cc(C2=C(c3cn(C4CCN(Cc5ccccn5)CC4)c4ccccc34)C(=O)NC2=O)c2ccccc21 [Enzastaurin],873,109,4980,> 10000,5780,> 10000,7970,> 10000,> 10000,9200,401,2270,> 10000,,,,,,,
CC(C)(C)c1nc(-c2cccc(NS(=O)(=O)c3c(F)cccc3F)c2F)c(-c2ccnc(N)n2)s1 [Dabrafenib],274,9480,5600,,749,,975,971,,197,50.5,1830,341,428,348,883,,,,
O=C(c1cc(Cc2n[nH]c(=O)c3ccccc23)ccc1F)N1CCN(C(=O)C2CC2)CC1 [Olaparib],,7820,> 10000,,1870,3550,446,5000,9600,1490,> 10000,3200,,8230,,,> 10000,3940,,
COc1cc2nccc(Oc3ccc(NC(=O)C4(C(=O)Nc5ccc(F)cc5)CC4)cc3)c2cc1OC [Cabozantinib],,4380,3550,> 10000,,> 10000,> 10000,,> 10000,> 10000,6600,3810,,,,,> 10000,> 10000,4020,> 10000
Cc1cccc(-c2[nH]c(CNc3ccccc3F)nc2-c2ccc3ncnn3c2)n1 [Vactosertib],51.8,7510,3660,3450,838,2150,78.2,6110,0.8,217,809,17.8,,,,,4290,,,
COCCNc1cc(NC(=O)N2CCCc3cc(CN4CCN(C)CC4=O)c(C=O)nc32)ncc1C#N [Roblitinib],150,> 10000,1060,7290,> 10000,5220,0.56,207,7.75,0.09,25.8,60.7,,,,,4040,,,
N#CC[C@H](C1CCCC1)n1cc(-c2ncnc3[nH]ccc23)cn1 [Ruxolitinib],117,8280,1370,9910,13.4,6970,23.6,1740,1750,> 10000,0.51,212,,,,,2210,,,
N#CCNC(=O)c1ccc(-c2ccnc(Nc3ccc(N4CCOCC4)cc3)n2)cc1 [Momelotinib],6780,953,8650,,,,4110,,,8470,9140,2670,> 10000,> 10000,,5780,,,> 10000,> 10000
Cc1cc2cc(Oc3ccnc(Nc4cccc(CS(=O)(=O)NCCN(C)C)c4)n3)ccc2[nH]1 [Sulfatinib],> 10000,6810,7980,> 10000,,4560,> 10000,,> 10000,5550,3530,1900,,,,,5780,,> 10000,3080
CC[C@@H]1CN(C(=O)NCC(F)(F)F)C[C@@H]1c1cnc2cnc3[nH]ccc3n12 [Upadacitinib],309,1.06,215,49,> 10000,704,137,1590,6.77,26.9,0.18,973,,,,,7050,,,
CC1(C)CNc2cc(NC(=O)c3cccnc3NCc3ccncc3)ccc21 [Motesanib],> 10000,3910,> 10000,> 10000,455,> 10000,9400,7350,942,8730,9170,515,,,,,2550,,,
Cc1ccc(Nc2nccc(N(C)c3ccc4c(C)n(C)nc4c3)n2)cc1S(N)(=O)=O [Pazopanib],4120,> 10000,913,5020,35.4,> 10000,> 10000,3820,> 10000,2410,> 10000,135,,,,,8400,,,
CNC(=O)c1c(C)oc2cc(Oc3ncnc4cc(OC)c(OC)cc34)ccc12 [Fruquintinib],1.05,5.08,20.4,1660,1810,0.01,596,2740,0.05,552,32.9,653,,,,,5.57,,,
FC(F)(F)c1ccc(CNc2ccc(Cc3c[nH]c4ncc(Cl)cc34)cn2)cn1 [Pexidartinib],6180,10100,2210,4000,46.5,8880,9890,2640,1100,10200,> 10000,4690,,,,,6940,,,
Cc1cn(-c2cc(NC(=O)c3ccc(C)c(Nc4nccc(-c5cccnc5)n4)c3)cc(C(F)(F)F)c2)cn1 [Nilotinib],> 10000,> 10000,3790,> 10000,5190,3610,> 10000,3700,186,> 10000,> 10000,22.2,,,,,> 10000,,,
